# Laboratory results as given in patent US7868005B2, “Pyrazinyl substituted piperazine-piperidines with CXCR3 antagonist activity” (Schering Corporation, priority 2005, dated 2011).
# Biological target: T1, human CXCR3 (N-delta 4) (Homo sapiens, UniProt P49682)
# T1 construct: CD8 leader (N); Flag; expressed in transfected cells; membranes prepared
# T1 sequence (P49682 5-368 limits assumed): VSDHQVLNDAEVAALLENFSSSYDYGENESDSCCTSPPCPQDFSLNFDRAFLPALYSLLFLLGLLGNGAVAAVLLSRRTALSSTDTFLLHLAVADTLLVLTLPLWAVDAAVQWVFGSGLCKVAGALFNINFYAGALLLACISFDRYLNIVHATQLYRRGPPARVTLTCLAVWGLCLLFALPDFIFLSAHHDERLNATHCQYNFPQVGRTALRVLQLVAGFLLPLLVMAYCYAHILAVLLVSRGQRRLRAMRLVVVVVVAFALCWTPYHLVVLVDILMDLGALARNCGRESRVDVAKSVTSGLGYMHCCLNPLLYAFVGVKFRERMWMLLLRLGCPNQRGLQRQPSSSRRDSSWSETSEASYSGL
# Assay: Human CXCR3 (N-delta 4) Scintillation Proximity Assay (SPA), [125I] IP-10 binding to Ba/F3-hCXCR3 membranes
# Conditions: IC50 rating, Table 1; read-out: IC50
row,Compound,IC50
1,CC[C@H]1CN(c2ncc(C(=O)NC3CC3)nc2C)CCN1C1CCN(C(=O)c2ccc(F)c(OC)c2)CC1 [compound 467],< 25 nM
2,CC[C@H]1CN(c2ncc(C(=O)NC3CC3)nc2C)[C@H](C)CN1C1CCN(C(=O)c2ccc(Cl)cc2)CC1 [compound 468],< 25 nM
3,CC[C@H]1CN(c2ncc(C(=O)NC3CC3)nc2C)CCN1C1CCN([C@@H](CO)c2ccc(Cl)cc2)CC1 [compound 469],< 25 nM
4,CC[C@H]1CN(c2ncc(C(=O)NC3CC3)nc2C)CCN1C1CCN([C@H](CO)c2ccc(Cl)cc2)CC1 [compound 470],< 25 nM
5,CC[C@H]1CN(c2ncc(C(=O)NC3CC3)nc2C)CCN1C1CCN([C@@H](CO)c2ccc(F)c(F)c2)CC1 [compound 471],< 25 nM
6,CC[C@H]1CN(c2ncc(C(=O)NC3CC3)nc2C)CCN1C1CCN([C@H](CO)c2ccc(F)c(F)c2)CC1 [compound 472],< 25 nM
7,CC[C@H]1CN(c2ncc(C(=O)NC3CC3)nc2C)CCN1C1CCN(Cc2ccc(C(F)(F)F)cc2)CC1 [compound 473],< 25 nM
8,CCNC(=O)c1cnc(N2C[C@H](CC)N(C3CCN(C(=O)c4ccc(Cl)cc4)CC3)C[C@H]2C)c(Cl)n1 [compound 474],< 25 nM
9,CC[C@H]1CN(c2ncc(C(=O)NC)nc2C)CCN1C1CCN(C(=O)c2ccc(OC(F)(F)F)cc2)CC1 [compound 475],< 25 nM
10,CC[C@H]1CN(c2ncc(C(N)=O)nc2Cl)CCN1C1CCN([C@@H](C(=O)OC)c2ccc(Cl)cc2)CC1 [compound 476],< 25 nM
11,CC[C@H]1CN(c2ncc(C(=O)NC)nc2C(F)(F)F)CCN1C1CCN(C(=O)c2ccc(Cl)cc2)CC1 [compound 477],< 25 nM
12,CC[C@H]1CN(c2ncc(C(N)=O)nc2C(F)(F)F)[C@H](C)CN1C1CCN(C(=O)c2ccc(Cl)cc2)CC1 [compound 478],< 25 nM
13,CC[C@H]1CN(c2ncc(C(=O)NC3(C)CC3)nc2C)[C@H](C)CN1C1CCN(C(=O)c2ccc(Cl)cc2)CC1 [compound 479],< 25 nM
14,CC[C@H]1CN(c2nc(N)c(C(=O)NC3CC3)nc2C)[C@H](C)CN1C1CCN(C(=O)c2ccc(Cl)cc2)CC1 [compound 480],< 25 nM
15,CC[C@H]1CN(c2ncc(C(=O)NC3CC3)nc2C)[C@H](C)CN1C1CCN([C@H](CO)c2ccc(Cl)cc2)CC1 [compound 481],< 25 nM
16,CC[C@H]1CN(c2nc(N)c(C(=O)NCCO)nc2C)[C@H](C)CN1C1CCN(C(=O)c2ccc(Cl)cc2)CC1 [compound 482],< 25 nM
17,CC[C@H]1CN(c2ncc(C(=O)NC3CC3)nc2C)CCN1C1CCN(C(=O)c2ccc(C(F)(F)F)cc2)CC1 [compound 483],< 25 nM
18,CCNC(=O)c1cnc(N2CCN(C3CCN(C(=O)c4ccc(Cl)cc4)CC3)[C@@H](CC)C2)c(C(F)(F)F)n1 [compound 484],< 25 nM
19,CC[C@H]1CN(c2ncc(C(=O)NC3CC3)nc2C)CCN1C1CCN([C@@H](C(=O)OC)c2ccc(Cl)cc2)CC1 [compound 485],< 25 nM
20,CC[C@H]1CN(c2ncc(C(=O)NC3CC3)nc2C)CCN1C1CCN([C@@H](C(=O)OC)c2ccc(F)c(F)c2)CC1 [compound 486],< 25 nM
21,CCc1ccc(C(=O)N2CCC(N3CCN(c4ncc(C(=O)NC5CC5)nc4C(F)(F)F)C[C@@H]3CC)CC2)cc1 [compound 487],< 25 nM
22,CC[C@H]1CN(c2ncc(C(=O)NCCO)nc2C)[C@H](C)CN1C1CCN(Cc2ccc(OC(F)(F)F)cc2)CC1 [compound 488],< 25 nM
23,CC[C@H]1CN(c2ncc(C(=O)NC3CC3)nc2C(F)(F)F)CCN1C1CCN(C(=O)c2ccc(Cl)cc2)CC1 [compound 489],< 25 nM
24,CC[C@H]1CN(c2ncc(C(=O)NC3CC3)nc2C(F)(F)F)CCN1C1CCN(C(=O)c2ccc(F)c(F)c2)CC1 [compound 490],< 25 nM
25,CC[C@H]1CN(c2ncc(C(=O)NC3CC3)nc2C)CCN1C1CCN(Cc2ccc(Cl)c(OCCS(C)(=O)=O)c2)CC1 [compound 492],< 25 nM
